Reference: patent publication US7888330B2, “Phosphoramidate derivatives of FAU” (Wayne State University, priority 2005, dated 2011)
“And” between values parts separate entries of the source, which are not always exact repeats. Equal entries are not always repeated. “Also recorded” adds a separate entry of the source.

Experiments:
Renca cells [1] = test: DNA incorporation studies (PCA acid extraction) in Renca cells; assay type: cell-based, mouse; conditions: 2 hours
Description: (§1) Renca, a mouse renal carcinoma cell line used for these studies, was a gift from Dr. G. Gali Hillman, Wayne State University. Cells were cultured in RPMI-1640 medium containing L-glutamine (Gibco) supplemented with 10% (v/v) fetal bovine serum (FBS), 100 U/mL penicillin, and 0.1 mg/mL streptomycin. Cells were cultured at 37° C. in a humidified incubator with a gas phase of 95% air and 5% CO2.
Two days after seeding 1×10^6 cells in 100×20 mm culture dishes, culture medium was replaced with 1 mL medium containing either 1 μCi/mL of [H-3] FAU or [H-3] FAU-PA. Cells were incubated in a humidified incubator for two hours at 37° C. in an atmosphere of 5% CO2 and 95% air. At the end of the incubation period, radioactive medium was removed and cells were washed three times with ice cold PBS. Then, cells were trypsinized, centrifuged and rewashed three times with ice cold PBS. Cells were lysed with 1 mL of 1M ice-cold perchloric acid solution. The cell lysates were vortexed and centrifuged at 14000 g for 15 minutes. The supernatants were removed, and the pellets were rinsed twice with 1 mL PCA. The acid insoluble fractions were resuspended in 200 μl of Soluene-350. All the acid soluble fractions or supernatants and the acid insoluble fractions were mixed with 5 mL of Ultima Gold scintillation cocktail and counted for 5 minutes on a liquid scintillation counter after an overnight chilling. […]

MOLT-4 cells = test: Growth inhibition, MOLT-4 cells; assay type: cell-based, human
Description: (§2) The cell lines CEM (T lymphoblastoid cells derived from a human peripheral blood), MOLT-4 (derived from a human acute lymphoblasticleukemia), RAJI (derived from a human Burkitt lymphoma), U-937 (derived from a human histocytic lymphoma), and K-562 (derived from a human chronic myelogenous leukemia) were used to measure the cytotoxicity, as assessed by growth inhibition potential. The cell lines were purchased from the American Type Culture Collection (Vienna, Va.). The cells were grown and maintained as a suspension culture in a RPMI 1640 preparation containing L-glutamine (Biofluids, Rockville, Md.) and 10% (v/v) heat-inactivated fetal calf serum (Invitrogen, Chicago, Ill.); a penicillin-streptomycin solution (Sigma Chemical Co., St. Louis, Mo.) was added to achieve a final concentration of 100 units/mL, and 100 μg/mL respectively. Cells were maintained at 37° C. in a humidified 5% CO2 atmosphere and were passed every 72-96 h to maintain cell densities of approximately 30,000 to 40,000 cells/mL. Under these conditions, the doubling times for CEM cells, MOLT-4 cells, RAJI cells, U-937 cells, and K-562 cells were 21-22 hours.
(§3) FAU and FAUPA were dissolved in deionized water and sterilized by passing through a Millex-GV, 0.22 μm filter, Millipore, Bedford, Mass.
(§4) All cell lines were resuspended in fresh media at 3000 to 3500 cells/mL. […]

CEM cells = test: Growth inhibition, CEM cells; assay type: cell-based, human; conditions: 72 hours, cell counting
Description: as §2, §3, §4

U-937 cells = test: Growth inhibition, U-937 cells; assay type: cell-based, human; conditions: 72 hours
Description: as §2, §3, §4

RAJI cells = test: Growth inhibition, RAJI cells; assay type: cell-based, human; conditions: 72 hours; for growth inhibition (in words): 3-1000 μM
Description: as §2, §3
(§5) All cell lines were resuspended in fresh media at 3000 to 3500 cells/mL. To each cell suspension final volume 0.2 mL, was added to achieve 0 to 1000 μM concentration of either FAU or FAU-PA. Control experiments had appropriate amounts of sterile distilled water instead of the drug.

K-562 cells = test: Growth inhibition, K-562 cells; assay type: cell-based, human; conditions: 72 hours; for growth inhibition (in words): 3-1000 μM
Description: as §2, §3, §5

[2] = molecular target: T1, mammalian cytosolic thymidine kinase (TK1) (Homo sapiens, UniProt P04183); conditions: relative to thymidine or FMAU (Sun et al., 2003); cited from earlier work
T1 sequence (P04183 1-234): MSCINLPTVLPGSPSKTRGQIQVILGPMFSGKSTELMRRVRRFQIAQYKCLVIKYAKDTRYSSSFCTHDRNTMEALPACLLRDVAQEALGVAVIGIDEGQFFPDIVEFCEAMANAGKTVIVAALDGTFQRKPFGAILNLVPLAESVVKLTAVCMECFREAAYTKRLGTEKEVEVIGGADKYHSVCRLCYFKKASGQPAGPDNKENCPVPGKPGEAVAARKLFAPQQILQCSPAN

Renca cells [3] = test: Tracer uptake studies in Renca cells; assay type: cell-based, mouse; conditions: 2 hours, 1 μCi/mL [H-3] tracer
Description: as §1
Tracer uptake studies were performed using [H-3]FAU (318.2 GBq/mmol, >99% radiochemical purity), and [H-3]FAU-PA (9.25 GBq/mmol, >99% radiochemical purity). Radiochemicals were obtained from Moravek Biochemicals (Brea, Calif.).
Renca cells were seeded at 2×10^5 cells/mL in 6 well plates. After 48 hours, when cells were 50-60% confluent, culture medium was replaced with 1 mL medium containing either 1 μCi/mL of [H-3]FAU or [H-3]FAU-PA. Cells were incubated in a humidified incubator for two hours at 37° C. in an atmosphere of 5% CO2 and 95% air. At the end of the incubation period, radioactive medium was removed, and cells were rinsed three times with ice cold phosphate buffered saline (PBS). Then, cells were trypsinized, centrifuged at 2000 g for 5 minutes and rewashed three times with ice cold PBS. […] All the supernatants and pellet samples were mixed with 5 mL of Ultima Gold scintillation cocktail and counted for 5 minutes in a liquid scintillation counter. […]

pig liver esterase = test: Pig liver esterase hydrolysis studies; assay type: in vitro ADME; conditions: 1 mg/mL in 0.02 M Na2HPO4, 200 units esterase per mL, 37° C., followed by TLC
Description: Thymidine and phosphoramidate analogs were dissolved in 0.02 M Na2HPO4 at a concentration of 1 mg/mL and 200 units of pig liver esterase per mL solutions (Sigma, St. Louis, Mo.) were added. The mixtures were stirred and maintained at 37° C. through out the course of the experiment. The rate of hydrolysis was followed by thin layer chromatography (TLC) from reaction mixture samples collected at selected intervals. For TLC monitoring, CH2Cl2:MeOH (4:1) and i-PrOH:NH4OH:H2O (7:1:2) mobile phases were used. At the completion of hydrolysis, within 30 minutes, samples were run on a HPLC system.

Row | SMILES | share of total accumulated activity found in the acid insoluble fraction (Renca cells [1]) | growth inhibition at 1 mM (in words) (MOLT-4 cells; 1 mM, 72 hours, compared with CEM) | IC50 (CEM cells) | growth inhibition at 1 mM (in words) (U-937 cells; 1 mM, compared with CEM) | growth inhibition at 1 mM (in words) (RAJI cells; 1 mM, compared with CEM) | growth inhibition (in words) (RAJI cells) | growth inhibition at 1 mM (K-562 cells; K-562 cells, 1 mM) | growth inhibition (in words) (K-562 cells; K-562 cells) | substrate quality for thymidine kinase (in words) [2] | intracellular accumulation of activity, FAU-PA relative to FAU (Renca cells [3]) | intracellular accumulation of activity, FAU-PA relative to FAU (Renca cells [3]; listed as [H-3]FAU-PA) | time for hydrolysis by pig liver esterase (pig liver esterase) | IC50 (MOLT-4 cells; Homo sapiens, MOLT-4, 72 hours, cell counting) | IC50 (CEM cells; Homo sapiens, CCRF-CEM) | IC50 (U-937 cells; Homo sapiens, cell counting) | IC50 (RAJI cells; Homo sapiens, cell counting) | IC50 (K-562 cells; Homo sapiens, K562, K-562 cells (printed K-567), cell counting)
1 | O=c1ccn([C@@H]2O[C@H](CO)[C@@H](O)[C@@H]2F)c(=O)[nH]1 [FAU, 1-(2′-deoxy-2′-fluoro-β-D-arabinofuranosyl)-uracil, reference compound] | 80% | somewhat less inhibited | < 100 µM | somewhat less inhibited | somewhat less inhibited | little growth inhibition | 40% | little growth inhibition | poor substrate; also recorded: very poor substrate | – | – | – | – | – | – | – | –
2 | COC(=O)C(C)NP(=O)(OCC1OC(n2ccc(=O)[nH]c2=O)C(F)C1O)Oc1ccccc1 [FAU-PA, 1-(2′-deoxy-2′-fluoro-β-D-arabinofuranosyl)-uracil-5′-(phenylmethoxyalaninyl phosphate] | 72% | – | – | – | – | little growth inhibition | – | little growth inhibition | – | > 17 fold and 17 fold | 17 fold | ≤ 15 min | < 60 µM | < 60 µM | < 60 µM | > 100 µM | > 100 µM
3 | COC(=O)C(C)NP(=O)(OCC1OC(n2cc(C)c(=O)[nH]c2=O)C[C@H]1O)Oc1ccccc1 (stereo partly drawn) [thymidine-PA, Methyl thymidine-5′-phenylphosphoryl-P→N-alaninate, reference compound] | – | – | – | – | – | – | – | – | – | – | – | 15 to 30 min | – | – | – | – | –
